Test results: ChEMBL document CHEMBL1129706, “Z1046, a novel peripheral dopaminergic agent” (Bioorg Med Chem Lett, 1996)

Key:
[1] = molecular target: T1, Adrenergic receptor alpha-1 (Homo sapiens, UniProt P35348+P25100+P35368); assay: Activity at alpha-1 adrenergic receptor in rabbit aorta rings; assay type: tissue-based, Oryctolagus cuniculus; settings: target entry is the homologue from another species
T1 sequence (P35348 whole entry): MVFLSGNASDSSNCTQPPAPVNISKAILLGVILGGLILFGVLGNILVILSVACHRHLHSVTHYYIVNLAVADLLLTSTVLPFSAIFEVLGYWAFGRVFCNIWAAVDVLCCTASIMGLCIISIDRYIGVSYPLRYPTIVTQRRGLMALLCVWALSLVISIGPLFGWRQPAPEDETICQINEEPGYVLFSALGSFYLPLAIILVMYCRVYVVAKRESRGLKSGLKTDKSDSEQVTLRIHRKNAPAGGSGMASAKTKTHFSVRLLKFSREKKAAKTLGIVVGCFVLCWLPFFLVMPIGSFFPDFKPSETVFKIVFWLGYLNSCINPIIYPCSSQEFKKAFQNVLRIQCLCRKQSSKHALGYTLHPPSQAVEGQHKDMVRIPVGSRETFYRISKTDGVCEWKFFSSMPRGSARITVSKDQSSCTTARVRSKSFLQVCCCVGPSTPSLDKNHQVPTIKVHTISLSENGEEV
T1 sequence (P25100 whole entry): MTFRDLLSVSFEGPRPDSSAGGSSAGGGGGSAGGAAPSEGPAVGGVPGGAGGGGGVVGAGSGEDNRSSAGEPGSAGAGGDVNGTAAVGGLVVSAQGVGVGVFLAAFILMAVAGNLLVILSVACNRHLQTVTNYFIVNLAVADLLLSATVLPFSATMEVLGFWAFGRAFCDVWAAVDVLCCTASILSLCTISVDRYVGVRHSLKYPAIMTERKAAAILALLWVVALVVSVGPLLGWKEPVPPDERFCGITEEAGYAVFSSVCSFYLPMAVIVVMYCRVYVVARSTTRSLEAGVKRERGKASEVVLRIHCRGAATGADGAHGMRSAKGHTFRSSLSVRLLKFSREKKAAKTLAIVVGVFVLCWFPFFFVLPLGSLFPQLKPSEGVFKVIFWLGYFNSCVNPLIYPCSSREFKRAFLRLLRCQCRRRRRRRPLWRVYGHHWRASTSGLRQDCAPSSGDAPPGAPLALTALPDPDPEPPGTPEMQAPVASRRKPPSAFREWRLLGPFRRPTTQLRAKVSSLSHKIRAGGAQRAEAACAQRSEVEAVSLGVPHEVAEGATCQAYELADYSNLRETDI
T1 sequence (P35368 whole entry): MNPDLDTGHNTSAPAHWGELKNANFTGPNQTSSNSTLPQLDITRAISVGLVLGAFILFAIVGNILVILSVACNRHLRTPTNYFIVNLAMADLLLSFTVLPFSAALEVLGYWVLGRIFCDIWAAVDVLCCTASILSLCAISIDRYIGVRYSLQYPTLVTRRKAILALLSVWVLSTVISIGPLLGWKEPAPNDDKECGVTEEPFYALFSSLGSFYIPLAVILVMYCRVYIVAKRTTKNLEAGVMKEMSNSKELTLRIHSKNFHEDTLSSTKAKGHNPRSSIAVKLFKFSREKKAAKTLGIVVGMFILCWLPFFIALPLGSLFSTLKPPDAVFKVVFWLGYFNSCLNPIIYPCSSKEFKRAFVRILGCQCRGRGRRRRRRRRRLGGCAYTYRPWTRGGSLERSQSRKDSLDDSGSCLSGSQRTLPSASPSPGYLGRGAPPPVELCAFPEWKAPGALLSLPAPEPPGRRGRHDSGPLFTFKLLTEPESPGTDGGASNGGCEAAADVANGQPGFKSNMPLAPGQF

[2] = molecular target: D(2) dopamine receptor (Homo sapiens) (UniProt P14416); settings: Oryctolagus cuniculus; Artery
Chain of D(2) dopamine receptor (Homo sapiens) (P14416 whole entry): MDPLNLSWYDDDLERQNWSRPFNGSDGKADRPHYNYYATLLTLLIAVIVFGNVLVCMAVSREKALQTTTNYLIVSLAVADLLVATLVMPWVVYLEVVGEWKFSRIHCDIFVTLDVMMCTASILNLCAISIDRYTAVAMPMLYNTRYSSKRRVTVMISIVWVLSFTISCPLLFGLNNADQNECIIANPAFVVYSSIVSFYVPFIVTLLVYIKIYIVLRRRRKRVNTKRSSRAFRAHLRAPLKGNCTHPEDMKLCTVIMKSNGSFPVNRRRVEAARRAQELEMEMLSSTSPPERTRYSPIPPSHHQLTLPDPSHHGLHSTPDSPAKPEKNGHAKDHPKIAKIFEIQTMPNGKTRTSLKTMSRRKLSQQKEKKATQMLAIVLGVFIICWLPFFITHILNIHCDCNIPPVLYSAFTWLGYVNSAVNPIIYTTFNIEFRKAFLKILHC
Description: Activity at Dopamine receptor D2 in rabbit ear artery

[3] = molecular target: D(1A) dopamine receptor (Homo sapiens) (UniProt P21728); settings: Oryctolagus cuniculus
Chain of D(1A) dopamine receptor (Homo sapiens) (P21728 whole entry): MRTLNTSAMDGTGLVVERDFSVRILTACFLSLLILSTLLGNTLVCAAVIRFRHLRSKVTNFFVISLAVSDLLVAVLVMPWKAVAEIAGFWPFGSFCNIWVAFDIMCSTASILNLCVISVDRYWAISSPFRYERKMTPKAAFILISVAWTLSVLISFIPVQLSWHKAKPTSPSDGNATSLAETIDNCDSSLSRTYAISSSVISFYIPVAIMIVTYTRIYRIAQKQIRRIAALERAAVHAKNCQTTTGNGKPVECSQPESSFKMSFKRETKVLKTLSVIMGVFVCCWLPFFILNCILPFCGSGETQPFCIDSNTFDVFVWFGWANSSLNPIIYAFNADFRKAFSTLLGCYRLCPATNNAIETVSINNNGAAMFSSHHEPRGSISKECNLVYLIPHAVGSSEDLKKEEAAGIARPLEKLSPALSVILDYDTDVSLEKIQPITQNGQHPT
Description: Dopamine receptor D1 like evaluated for mesenteric blood flow increase in anesthetized rabbit

[4] = molecular target: Adrenergic receptor alpha-2 (Homo sapiens) (UniProt P08913+P18825+P18089); settings: Cavia porcellus; Cardiac atrium
Description: Alpha-2 adrenergic receptor activity in guinea pig right atrium

[5] = molecular target: Adrenergic receptor alpha-1 (Homo sapiens) (UniProt P35348+P25100+P35368); settings: Oryctolagus cuniculus; Aorta

Compound	pA2 [1]	pD2 [2]	ED20 [3] [nM/kg]	pD2 [4]	pD2 [5]
CCCN(CCCCCCNCCOc1ccccc1OC)CCc1ccc(O)c(O)c1	6.5	7.56	> 3000	< 5	–
CNC[C@H](O)c1cccc(O)c1	–	–	–	–	6.5
CCCN(CCCCCCN(C)CCOc1ccccc1OC)[C@H]1CCc2c(ccc(O)c2O)C1	< 5	8.5	34	6.9	–
CCCN(CCCCCCN(CCC)[C@H]1CCc2c(ccc(O)c2O)C1)CCOc1ccccc1OC	< 5	7.4	407	6	–
COc1ccccc1OCCNCCCCCCN[C@H]1CCc2c(ccc(O)c2O)C1	7.1	6.5	> 3000	< 5	–

More lines, now with the values ahead:

pA2 [1]	pD2 [2]	ED20 [3] [nM/kg]	pD2 [4]	pD2 [5]	Compound
6.6	7.5	60	< 5	–	CCCCN(CCCCCCNCCOc1ccccc1OC)[C@H]1CCc2c(ccc(O)c2O)C1
6.8	8.4	35	5.7	–	CCCN(CCCCCCCNCCOc1ccccc1OC)[C@H]1CCc2c(ccc(O)c2O)C1
6.9	6.5	1050	< 5	–	CCCN(CCCCCCNCCOc1ccccc1OC)[C@@H]1CCc2c(ccc(O)c2O)C1
6.5	9	13	6.7	–	CCCN(CCCCCCNCCOc1ccccc1OC)[C@H]1CCc2c(ccc(O)c2O)C1
6.5	8.7	107	6.5	–	CCCN(CCCCCNCCOc1ccccc1OC)[C@H]1CCc2c(ccc(O)c2O)C1
